Test results taken from patent US20180325840A1, “COMPOSITIONS AND METHODS FOR PREVENTING OR TREATING FATTY PANCREAS OR AMELIORATING PANCREAS DISEASES CAUSED BY FATTY PANCREAS, DIABETES MELLITUS OR OTHER RELATED DISORDERS” (NATIONAL DEFENSE EDUCATION AND RESEARCH FOUNDATION, priority 2015, published 2018).

Legend:
Format in all cases: in vivo
[1] = tested on: B6 mice; assay: Triglyceride (TG) and total cholesterol (TC) in pancreatic tissue of high-fat diet mice; details: 4 weeks of administration
Procedure: (§1) The experimental animals employed were B6 mice. The number of test animals in each group of the pre-test was four or more, and the number of test animals in each group of the confirmation test was twelve or more. Male mice having a weight of 18 to 23 g were bred in an animal room with a normal light and dark cycle (7:00 am to 7:00 pm being the bright period, and the rest being the dark period) at a temperature of 23±2° C. and a relative humidity of 55±15%. After the animals were purchased from Lesco Biotech Co., Ltd. (Taipei) and housed at the National Defense Animal Center, the animal experiments were conducted following the Experimental Guide of National Health Research Institute. First, the animals were fed with 3-5 grams of general diet daily, and the water was supplied infinitely. After 1 to 2 weeks of breeding, the healthy state was observed. The body weight was recorded once a week.
(§2) The test animals were randomly grouped into blank control (Blank), high-fat control (HFD), positive control (PS), and test group. The blank control was given a normal diet; the high-fat control was given a high-fat diet; the positive control was given a high-fat diet and tube fed with silymarin (5 mg/kg/day) (Iranian Journal of Pharmaceutical Research (2016), 15 (3): 493-500; Life Sciences 75 (2004) 2167-2180; and Pharm Biol. 2016 Jul. 8:1-6); and the test group was given a high-fat diet and tube fed with the test ingredient individually.
(§3) The blank control was fed with a normal diet arbitrarily for 12 weeks. The high-fat control, the positive control, and the test group were fed with a high-fat diet arbitrarily for 12 weeks. After 8 weeks of feeding, the blank control and the high-fat control were tube fed with deionized water once a day. The positive control was tube fed with silymarin once a day. The test group was tube fed with test compound(s) once a day for 4 weeks.
1.4.6 Analysis of Triglyceride (TG) and Total Cholesterol (TCHO, TC) in Pancreatic Tissue
After the mice were sacrificed, the pancreas was taken out and weighed to compare the ratios of pancreas weight to body weight. The remaining pancreas was frozen and preserved, and the contents of triglyceride and the total cholesterol in the pancreas were measured.
(§4) All data were expressed as mean±standard deviation (SD), and the test results were calculated using the ANOVA test method to determine whether there was a statistically significant difference by using the Statistical Package of the Social Science program (Version 13, SPSS Inc.) software package. Subsequently, post hoc test least significant difference method was used to perform multiple comparisons to confirm the significant differences between the groups. The significant difference between the averages of the groups was p<0.05.

[2] = tested on: B6 mice; assay: Blood glucose analysis (GLU) in high-fat diet mice; details: for GLU: fasted overnight, 4 weeks of administration; for effect on GLU (in words): single test compound
Procedure: as §1, §2, §3
1.4.2 Analysis of Biochemical Functions of the Pancreas: Blood Glucose Analysis (GLU)
Blood glucose analysis was performed with Roche's ACCU-CHEK Active blood glucose meter. One day before blood collection, mice were fasted overnight. The code card of the blood glucose test paper was inserted into the blood glucose meter, and then the blood glucose test paper was inserted. After the blood drop pattern appeared on the meter, a drop of blood was taken from in vein at the cheek of the mouse with a buccal needle and then dropped into the blood glucose test paper. The blood glucose data shown on the blood glucose meter were recorded.
as §4

[3] = tested on: B6 mice; assay: Intraperitoneal glucose tolerance test (IPGTT) in high-fat diet mice; details: for AUC of IPGTT: 2 g/kg glucose IP, blood glucose vs. time, 4 weeks of administration; for effect on sugar tolerance (IPGTT, in words): single test compound
Procedure: as §1, with “Male mice having a weight of 18 to 23 g were bred in an animal room with a normal light and dark cycle (7:00 am to 7:00 pm being the bright period, and the rest being the dark period) at a temperature of 23±2° C. and a relative humidity of 55±15%.” left out
The test animals were randomly grouped into blank control (Blank), high-fat control (HFD), positive control (PS), and test group.
as §3
1.4.3 Analysis of Biochemical Functions of the Pancreas: Intraperitoneal Glucose Tolerance Test (IPGTT)
The mice were moved into a clean cage and fasted overnight. There was no food or feces at the feeding funnel or the bottom of the clean cage to ensure that the animals may get drinking water at all times. The body weight of the mice was measured, and the volume of the glucose solution required for intraperitoneone (IP) injection was calculated (based on a concentration of 250 mg/mL and 2 g of glucose per kg of mouse weight, the volume (μl) required would be 8× body weight (g)). The mice were moved out and injected intraperitoneally with an appropriate amount of glucose solution, and the injection time was recorded. Blood samples were taken from the tail of the mice at 0, 15, 30, 60, 120 and 150 minutes after the glucose solution was injected. The concentration of blood glucose was measured, and the blood glucose analysis was performed using the Roche's ACCU-CHEK Active blood glucose meter.
as §4

[4] = tested on: B6 mice; assay: Fasting insulin concentration (ELISA) in high-fat diet mice; details: for fasting insulin concentration: 4 weeks of administration; for effect on fasting insulin concentration (in words): single test compound
Procedure: as §1, §2, §3
1.4.4 Analysis of Biochemical Functions of the Pancreas: Analysis of Fasting Insulin Concentration
At the end of the test (at the twelfth week), the mice were fasted to collect the blood following the operation instructions of the mouse ultrasensitive insulin ELISA kit (ALPCO).
as §4

[5] = tested on: B6 mice; assay: Homeostasis model assessment of insulin resistance (HOMA-IR) in high-fat diet mice; details: for HOMA-IR: 4 weeks of administration; for effect on insulin resistance (in words): single test compound
Procedure: as §1, §2, §3
1.4.5 Analysis of Biochemical Functions of the Pancreas: Homeostasis Model Assessment of Insulin Resistance (HOMA-IR)
The mice were fasted to collect the blood at the end of the test (at the twelfth week), and the concentrations of blood glucose and insulin were measured and calculated according to the following formula: […]
as §4

[6] = tested on: B6 mice; assay: Serum (plasma) triglyceride (TG) in high-fat diet mice; details: for TG (plasma triglyceride): 4 weeks of administration
Procedure: as §1, §2, §3
Before the start of the test and at the 8th and 12th week after the start of the test, blood was collected from the cheek or heart. All the animals were weighed and then sacrificed at the end of the test, and blood was collected from the cheek or heart again. The blood samples of mice were allowed to stand at room temperature for 1 hour to coagulate, and then centrifuged at 15,700×g by a frozen centrifuge at 4° C. for 5 minutes to separate the serum.
1.4.1 Analysis of Serum Triglyceride (TG) and Total Cholesterol (TCHO, TC)
Triglyceride (TG) and total cholesterol (TCHO, TC) in the serum were measured by the automatic blood biochemical analyzer.
as §4

SMILES | pancreatic TC ([1]; 2.5 mg/kg tube fed once a day) [mg/g pancreatic tissue] | pancreatic TG ([1]; 2.5 mg/kg tube fed once a day) [mg/g pancreatic tissue] | effect on sugar tolerance (IPGTT, in words) [3] | effect on fasting insulin concentration (in words) [4] | effect on insulin resistance (in words) [5] | TG (plasma triglyceride) ([6]; 2.5 mg/kg) [mg/dL] | pancreatic TC ([1]; 1.5 mg/kg tube fed once a day) [mg/g pancreatic tissue] | pancreatic TG ([1]; 1.5 mg/kg tube fed once a day) [mg/g pancreatic tissue] | GLU ([2]; 1.5 mg/kg) [mg/dL] | effect on GLU (in words) [2] | AUC of IPGTT ([3]; 1.5 mg/kg) [g·h/dL] | fasting insulin concentration ([4]; 1.5 mg/kg) [ng/mL] | HOMA-IR ([5]; 1.5 mg/kg) | TG (plasma triglyceride) ([6]; 1.5 mg/kg) [mg/dL] | further results
O=C1C[C@@H](c2ccc(O)c(O)c2)Oc2cc(O)cc(O)c21 [eriodictyol] | 3.5 ± 0.6 | 4.5 ± 2.8 | significantly reduce | significantly reduce | significantly reduce | 135.4 ± 43.4 |  |  |  |  |  |  |  |  | GLU ([2]; 2.5 mg/kg): 219.0 ± 35.6 mg/dL; AUC of IPGTT ([3]; 2.5 mg/kg): 41.9 ± 5.9 g·h/dL; fasting insulin concentration ([4]; 2.5 mg/kg): 1.1 ± 0.4 ng/mL; HOMA-IR ([5]; 2.5 mg/kg): 0.6 ± 0.2; TG (plasma triglyceride) ([6]; 5.0 mg/kg): 143.2 ± 15.1 mg/dL; effect on triglyceride in plasma (in words) ([6]; as compared with the high-fat control): significantly reduce
COc1ccc([C@@H]2CC(=O)c3c(O)cc(O)cc3O2)cc1O [hesperitin] | 4.4 ± 0.7 | 5.7 ± 1.6 |  |  |  | 190.1 ± 25.9 |  |  |  |  |  |  |  |  | 
OC[C@@H](O)[C@@H](O)[C@H](O)[C@H](O)CO [mannitol] |  |  | significantly reduce | significantly reduce | significantly reduce |  | 3.7 ± 1.0 | 12.6 ± 7.5 | 112.2 ± 32.0 | significantly reduce | 42.7 ± 1.7 | 1.1 ± 0.4 | 0.3 ± 0.1 | 158.9 ± 48.9 | pancreatic TC ([1]; 4.5 mg/kg tube fed once a day): 3.3 ± 0.7 mg/g pancreatic tissue; pancreatic TG ([1]; 4.5 mg/kg tube fed once a day): 9.6 ± 5.1 mg/g pancreatic tissue; pancreatic TC ([1]; 7.5 mg/kg tube fed once a day): 3.1 ± 0.3 mg/g pancreatic tissue; pancreatic TG ([1]; 7.5 mg/kg tube fed once a day): 4.7 ± 4.0 mg/g pancreatic tissue; TG (plasma triglyceride) ([6]; 4.5 mg/kg): 180.1 ± 46.7 mg/dL; TG (plasma triglyceride) ([6]; 7.5 mg/kg): 163.9 ± 31.9 mg/dL
CC1CCC(C(C)C)C(O)C1 (stereo not shown) [menthol] |  |  | significantly reduce | significantly reduce | significantly reduce |  | 4.4 ± 0.9 | 18.1 ± 18.3 | 125.7 ± 33.5 | significantly reduce | 45.6 ± 4.8 | 1.2 ± 0.8 | 0.4 ± 0.4 | 173.7 ± 56.7 | 
